{
  "source": "patent US7645793B2",
  "about": "“Injectable pharmaceutical formulations” (Shionogi & Co., Ltd., priority 2001, dated 2010)",
  "assay_type_in_all_cases": "physicochemical",
  "key": {"[1]": {"test": "Determination of surface tension by Wilhelmy method", "experimental": "A compound to be determined that has been weighed is dissolved or suspended in a defined amount of a distilled water. As such, samples of aqueous solutions to be tested containing the compound at various concentrations are prepared, and each of the solutions is adjusted to be 50 ml aliquots.\nSurface tension-measuring device (Kruess Inc., Type K12) and the personal computer for control and analysis are started, and a software for determining surface tension (Kruess Inc., K122) is launched. The determination site of the device is subjected to the circulation of the water from a thermostatic chamber to keep the temperature constant at 25° C. […]\n(§1) Forty ml of a distilled water is poured into the vessel that have been washed, and the vessel is placed into the surface tension-measuring device. […] In this condition, surface tensions are determined. […] When the value of surface tension as determined one minute later is almost constant, then the value is recorded and the determination is stopped.\nas §1, with “After the blank determination, 40” for “Forty”, “sample of aqueous solutions” for “distilled water”, “stopped. […]” for “stopped.”"}, "[2]": {"test": "Ross-Miles Foaming Test (foaming vs pH)", "conditions": "0.1% w/w in water for injection, 25° C., ISO 696-1975", "experimental": "Compound 1 was dissolved in a water for injection (0.1% w/w), and the solution was quantitatively determined for foaming by Ross-Miles Foaming Test. Ross-Miles Foaming Test was conducted according to the method as defined in International Standard ISO 696-1975 except that the determination temperature was set 25° C."}, "[3]": {"test": "Storage stability of lyophilized formulation, HPLC of content and decomposed materials", "experimental": "After the formulation as prepared according to Example 1 was stored at 50° C. for 2 months, the amounts of decomposed materials produced by hydrolysis were determined and compared. Typical decomposed materials are:\nThe relationship of the contents of compound 1, the amounts of the decomposed materials, and the added amounts of D-mannitol comprised in between the formulation before the storage and that after the storage at 50° C. for 2 months, is shown in Table 2. The determination was conducted using high performance liquid chromatography (HPLC). The determination conditions of HPLC are as shown below: • Device: Waters 600E,484,712 wisp,74 1,FD20A • Column: J'sphere ODS-L80, S-4μm, 80A 150×4.6 mmφ • Moving phase: water/acetonitrile/acetic acid=100/100/1 • Flow rate: 1.0 ml/min • Injected volume: • 20 μL (at the time for determination of impure materials) • 10 μL (at the time for determination of compound 1) • Detection wavelength • 275 nm • Detection sensibility (AUFS): • 0.64 (at the time for determination of impure materials) • 0.20 (at the time for determination of compound 1) • Solvent for dilution of samples: • water/acetonitrile/acetic acid=100/100/1 • Concentration of samples • 1 mg/ml (at the time for determination of impure materials) • 60.0 μg/ml (at the time for determination of compound 1)"}, "[4]": {"conditions": "D-mannitol 0% of the weight of compound 1"}, "[5]": {"conditions": "D-mannitol 25% of the weight of compound 1"}, "[6]": {"conditions": "D-mannitol 50% of the weight of compound 1"}, "[7]": {"conditions": "D-mannitol 100% of the weight of compound 1"}},
  "data": [
    {"smiles": "CC1(C)CC[C@]2(C(=O)[O-])CC[C@]3(COC(=O)/C=C/c4cc(O)ccc4NC(=O)/C=C/C(=O)[O-])C(=CC[C@@H]4[C@@]5(C)CCC(=O)C(C)(C)[C@@H]5CC[C@]43C)[C@@H]2C1.[Na+].[Na+]", "note": "[compound 1]", "values": [
      {"measurement": "surface tension", "setting": "[1]; 37.6 mM solution of compound 1 in water, 25° C., Wilhelmy method", "value": "53.9±0.2", "unit": "mN/m"},
      {"measurement": "decrease in surface tension, pH 9.5 vs pH 7 to 7.5", "setting": "[1]; aqueous solutions at various concentrations, pH 9.5 adjusted with sodium hydroxide, FIG. 1", "value": "the decrease in the surface tension is inhibited at pH 9.5 more than that at pH7 to 7.5"},
      {"measurement": "foaming by Ross-Miles Foaming Test in relation to pH", "setting": "[2]", "value": "the foaming was inhibited depending on the increase in pH"},
      {"measurement": "Content of compound 1 (after storage at 50° C. for 2 months)", "setting": "[3]; [4]", "value": "97.1 ± 0.1", "unit": "%"},
      {"measurement": "amount of Other related compounds, After storage at 50° C. for 2 months", "setting": "[3]; [4]", "value": "0.66 ± 0.14", "unit": "%"},
      {"measurement": "amount of Other related compounds, Before storage", "setting": "[3]; [4]", "value": "0.32 ± 0.02", "unit": "%"},
      {"measurement": "amount of decomposed material compound A, After storage at 50° C. for 2 months", "setting": "[3]; [4]", "value": "1.71 ± 0.08", "unit": "%"},
      {"measurement": "amount of decomposed material compound A, Before storage", "setting": "[3]; [4]", "value": "0.26 ± 0.02", "unit": "%"},
      {"measurement": "Content of compound 1 (after storage at 50° C. for 2 months)", "setting": "[3]; [5]", "value": "97.9 ± 0.4", "unit": "%"},
      {"measurement": "amount of Other related compounds, After storage at 50° C. for 2 months", "setting": "[3]; [5]", "value": "0.87 ± 0.02", "unit": "%"},
      {"measurement": "amount of Other related compounds, Before storage", "setting": "[3]; [5]", "value": "0.33 ± 0.03", "unit": "%"},
      {"measurement": "amount of decomposed material compound A, After storage at 50° C. for 2 months", "setting": "[3]; [5]", "value": "0.44 ± 0.01", "unit": "%"},
      {"measurement": "amount of decomposed material compound A, Before storage", "setting": "[3]; [5]", "value": "0.13 ± 0.01", "unit": "%"},
      {"measurement": "Content of compound 1 (after storage at 50° C. for 2 months)", "setting": "[3]; [6]", "value": "98.0 ± 0.1", "unit": "%"},
      {"measurement": "amount of Other related compounds, After storage at 50° C. for 2 months", "setting": "[3]; [6]", "value": "0.89 ± 0.05", "unit": "%"},
      {"measurement": "amount of Other related compounds, Before storage", "setting": "[3]; [6]", "value": "0.32 ± 0.02", "unit": "%"},
      {"measurement": "amount of decomposed material compound A, After storage at 50° C. for 2 months", "setting": "[3]; [6]", "value": "0.24 ± 0.01", "unit": "%"},
      {"measurement": "amount of decomposed material compound A, Before storage", "setting": "[3]; [6]", "value": "0.11 ± 0.01", "unit": "%"},
      {"measurement": "Content of compound 1 (after storage at 50° C. for 2 months)", "setting": "[3]; [7]", "value": "98.3 ± 0.1", "unit": "%"},
      {"measurement": "amount of Other related compounds, After storage at 50° C. for 2 months", "setting": "[3]; [7]", "value": "1.24 ± 0.05", "unit": "%"},
      {"measurement": "amount of Other related compounds, Before storage", "setting": "[3]; [7]", "value": "0.31 ± 0.01", "unit": "%"},
      {"measurement": "amount of decomposed material compound A, After storage at 50° C. for 2 months", "setting": "[3]; [7]", "value": "0.23 ± 0.02", "unit": "%"},
      {"measurement": "amount of decomposed material compound A, Before storage", "setting": "[3]; [7]", "value": "0.11 ± 0.01", "unit": "%"}
    ]}
  ]
}
